Measured values from publication PMC10041525, “New Dual Inhibitors of Bacterial Topoisomerases with Broad-Spectrum Antibacterial Activity and In Vivo Efficacy against Vancomycin-Intermediate Staphylococcus aureus” (Journal of Medicinal Chemistry, 2023).
Values after ≈ are worked out from the molar mass of the structure shown. Values joined by “and” are separate entries in the source; they are usually repeats but may differ in a detail not shown here. Equal values may be shown once. Read-outs that look alike come from different tables or passages of the source.

How the values were obtained:
[1] = target: A. baumannii DNA gyrase (Acinetobacter baumannii, UniProt A0ABX6CA01); experiment: gel-based supercoiling assay; type: biochemical
Description: In all experiments, the activity of the
(§2) enzymes was determined prior to the testing of the compound and 1 unit (U) was defined as the
(§3) amount of enzyme required to just fully supercoil or decatenate the substrate. This amount of
(§4) enzyme was initially used in determination of control inhibitor activity. These experiments were
(§5) performed in duplicate. […] The final DMSO
(§6) concentration was 1% for all assays. All measurements were performed in quadruplicates. The
(§7) condition for each reaction were as follows:
− S. aureus gyrase supercoiling assay
(§8) 1 U of S. aureus gyrase was incubated with 0.5 µg of relaxed pBR322 DNA in a 30 µL reaction at
(§9) magnesium acetate, 10 mM DTT, 2 mM ATP, 500 mM potassium glutamate and 0.05 mg/mL
− S. aureus topo IV decatenation assay
(§10) 1 U of S. aureus topo IV was incubated with 20 µg kDNA in a 30 µL reaction at 37 °C for 30
(§11) mM ATP, 350 mM potassium glutamate and 0.05 mg/mL albumin.
(§12) − A. baumannii gyrase supercoiling assay
(§13) 1 U of A. baumannii gyrase was incubated with 0.5 µg of relaxed pBR322 DNA in a 30 µL reaction
(§14) blue), before being loaded on a 1.0% TAE gel run at 80V for 2 hours. Bands were visualised by
(§15) ethidium bromide staining for 20 minutes and destaining for 20 minutes. Gels were scanned using
(§16) documentation equipment (GeneGenius, Syngene, Cambridge, UK) and % inhibition levels were
(§17) measured by determining the relative fluorescence of the supercoiled band using gel scanning
software. […]

[2] = target: T1, human DNA topoisomerase IIα (Homo sapiens, UniProt P11388); experiment: DNA relaxation assay; type: biochemical
T1 construct: purchased Inspiralis
T1 sequence (P11388 whole entry): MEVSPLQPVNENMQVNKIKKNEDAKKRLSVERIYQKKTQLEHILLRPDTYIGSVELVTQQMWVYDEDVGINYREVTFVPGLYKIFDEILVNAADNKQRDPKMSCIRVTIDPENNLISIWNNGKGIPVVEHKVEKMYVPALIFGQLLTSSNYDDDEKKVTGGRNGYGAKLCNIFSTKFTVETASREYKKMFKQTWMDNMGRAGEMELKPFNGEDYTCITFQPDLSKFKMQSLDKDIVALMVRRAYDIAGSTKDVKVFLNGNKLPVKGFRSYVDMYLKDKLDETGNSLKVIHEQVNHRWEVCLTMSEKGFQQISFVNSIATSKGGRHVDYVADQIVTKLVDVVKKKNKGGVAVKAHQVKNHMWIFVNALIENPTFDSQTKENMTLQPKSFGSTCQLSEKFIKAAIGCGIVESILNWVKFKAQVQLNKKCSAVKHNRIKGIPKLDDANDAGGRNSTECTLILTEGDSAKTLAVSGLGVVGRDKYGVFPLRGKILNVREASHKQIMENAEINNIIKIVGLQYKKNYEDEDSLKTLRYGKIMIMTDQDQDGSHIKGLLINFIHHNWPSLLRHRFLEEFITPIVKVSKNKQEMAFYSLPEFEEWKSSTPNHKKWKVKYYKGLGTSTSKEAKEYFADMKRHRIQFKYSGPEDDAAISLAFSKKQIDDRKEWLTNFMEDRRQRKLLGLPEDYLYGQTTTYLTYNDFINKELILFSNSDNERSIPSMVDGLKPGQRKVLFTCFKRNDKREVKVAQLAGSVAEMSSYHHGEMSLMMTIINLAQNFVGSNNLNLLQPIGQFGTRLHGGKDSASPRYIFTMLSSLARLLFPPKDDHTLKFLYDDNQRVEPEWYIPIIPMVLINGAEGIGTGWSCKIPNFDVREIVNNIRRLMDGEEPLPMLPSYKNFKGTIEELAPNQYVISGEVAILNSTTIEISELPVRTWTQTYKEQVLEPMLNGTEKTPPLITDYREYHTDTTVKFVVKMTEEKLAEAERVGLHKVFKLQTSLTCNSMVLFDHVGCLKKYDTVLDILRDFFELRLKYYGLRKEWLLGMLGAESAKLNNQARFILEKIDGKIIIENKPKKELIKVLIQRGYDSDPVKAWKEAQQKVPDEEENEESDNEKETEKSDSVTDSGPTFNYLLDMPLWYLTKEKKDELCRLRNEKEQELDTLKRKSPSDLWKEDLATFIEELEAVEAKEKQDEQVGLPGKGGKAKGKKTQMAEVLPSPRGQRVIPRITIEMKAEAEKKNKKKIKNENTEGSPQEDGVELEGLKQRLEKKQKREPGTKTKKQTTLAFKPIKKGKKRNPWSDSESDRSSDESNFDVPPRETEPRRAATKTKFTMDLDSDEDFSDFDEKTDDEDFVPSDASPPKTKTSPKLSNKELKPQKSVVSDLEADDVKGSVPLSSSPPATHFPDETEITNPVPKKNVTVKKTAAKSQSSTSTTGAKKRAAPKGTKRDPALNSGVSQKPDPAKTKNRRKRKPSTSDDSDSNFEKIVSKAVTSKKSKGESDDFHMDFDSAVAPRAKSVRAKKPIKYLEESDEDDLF
Description: Seven concentrations of the inhibitors were used to determine IC50 values which were then calculated with GraphPad Prism 6.0 software. Three independent measurements were performed to determine IC50 values, and mean values are reported as the final result.

[3] = tested on: A. baumannii BM4652 and NMI clinical isolates; experiment: MIC, wild-type, efflux-defective and MDR clinical isolates; type: cell-based; conditions: Acinetobacter baumannii
[4] = target: T2, hERG potassium ion channel (Homo sapiens, UniProt Q12809); experiment: patch-clamp on transfected CHO cells; type: cell-based
T2 construct: expressed in transfected cells; host or cells: CHO cells (stably transfected)
T2 sequence (Q12809 whole entry): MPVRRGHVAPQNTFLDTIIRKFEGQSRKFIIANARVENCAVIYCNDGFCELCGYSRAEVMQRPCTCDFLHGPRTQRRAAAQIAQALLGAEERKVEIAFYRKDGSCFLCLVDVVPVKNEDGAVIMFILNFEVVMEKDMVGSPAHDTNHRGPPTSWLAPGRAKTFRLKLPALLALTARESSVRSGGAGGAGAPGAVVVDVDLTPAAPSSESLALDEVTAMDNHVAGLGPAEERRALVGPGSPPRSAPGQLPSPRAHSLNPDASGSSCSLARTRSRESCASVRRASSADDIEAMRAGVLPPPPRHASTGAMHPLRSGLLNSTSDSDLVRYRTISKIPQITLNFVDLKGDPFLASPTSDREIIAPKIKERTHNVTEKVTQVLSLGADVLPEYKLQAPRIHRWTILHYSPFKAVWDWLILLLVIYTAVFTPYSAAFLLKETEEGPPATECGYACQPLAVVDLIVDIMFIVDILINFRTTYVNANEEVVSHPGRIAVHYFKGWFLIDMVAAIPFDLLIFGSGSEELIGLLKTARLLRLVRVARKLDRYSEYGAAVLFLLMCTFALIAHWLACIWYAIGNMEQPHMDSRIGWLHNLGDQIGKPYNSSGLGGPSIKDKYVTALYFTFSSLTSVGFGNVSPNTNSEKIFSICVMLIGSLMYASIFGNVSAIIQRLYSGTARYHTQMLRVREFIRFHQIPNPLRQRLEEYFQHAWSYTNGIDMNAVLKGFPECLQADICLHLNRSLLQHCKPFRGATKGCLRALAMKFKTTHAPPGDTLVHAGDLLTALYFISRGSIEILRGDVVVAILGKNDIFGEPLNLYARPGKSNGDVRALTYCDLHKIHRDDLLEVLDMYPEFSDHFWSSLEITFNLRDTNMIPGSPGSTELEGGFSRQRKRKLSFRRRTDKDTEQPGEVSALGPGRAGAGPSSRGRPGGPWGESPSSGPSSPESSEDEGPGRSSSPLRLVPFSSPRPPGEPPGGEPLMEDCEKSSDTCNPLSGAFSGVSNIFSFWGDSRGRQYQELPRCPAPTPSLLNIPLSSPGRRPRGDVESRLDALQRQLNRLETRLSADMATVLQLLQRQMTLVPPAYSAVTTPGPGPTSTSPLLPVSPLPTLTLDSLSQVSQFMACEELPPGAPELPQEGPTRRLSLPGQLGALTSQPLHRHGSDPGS
Description: (§1) hERG and NaV1.5 inhibition was measured with the patch-clamp method on stably transfected CHO cells according to previously described procedures.[34] […] The normalized hERG/NaV1.5 current is reported as mean ± standard error of the mean (SEM, N = 5–6).

[5] = target: T3, sodium Nav1.5 ion channel (Homo sapiens, UniProt Q14524); experiment: patch-clamp on transfected CHO cells; type: cell-based
T3 construct: expressed in transfected cells; host or cells: CHO cells (stably transfected)
T3 sequence (Q14524 whole entry): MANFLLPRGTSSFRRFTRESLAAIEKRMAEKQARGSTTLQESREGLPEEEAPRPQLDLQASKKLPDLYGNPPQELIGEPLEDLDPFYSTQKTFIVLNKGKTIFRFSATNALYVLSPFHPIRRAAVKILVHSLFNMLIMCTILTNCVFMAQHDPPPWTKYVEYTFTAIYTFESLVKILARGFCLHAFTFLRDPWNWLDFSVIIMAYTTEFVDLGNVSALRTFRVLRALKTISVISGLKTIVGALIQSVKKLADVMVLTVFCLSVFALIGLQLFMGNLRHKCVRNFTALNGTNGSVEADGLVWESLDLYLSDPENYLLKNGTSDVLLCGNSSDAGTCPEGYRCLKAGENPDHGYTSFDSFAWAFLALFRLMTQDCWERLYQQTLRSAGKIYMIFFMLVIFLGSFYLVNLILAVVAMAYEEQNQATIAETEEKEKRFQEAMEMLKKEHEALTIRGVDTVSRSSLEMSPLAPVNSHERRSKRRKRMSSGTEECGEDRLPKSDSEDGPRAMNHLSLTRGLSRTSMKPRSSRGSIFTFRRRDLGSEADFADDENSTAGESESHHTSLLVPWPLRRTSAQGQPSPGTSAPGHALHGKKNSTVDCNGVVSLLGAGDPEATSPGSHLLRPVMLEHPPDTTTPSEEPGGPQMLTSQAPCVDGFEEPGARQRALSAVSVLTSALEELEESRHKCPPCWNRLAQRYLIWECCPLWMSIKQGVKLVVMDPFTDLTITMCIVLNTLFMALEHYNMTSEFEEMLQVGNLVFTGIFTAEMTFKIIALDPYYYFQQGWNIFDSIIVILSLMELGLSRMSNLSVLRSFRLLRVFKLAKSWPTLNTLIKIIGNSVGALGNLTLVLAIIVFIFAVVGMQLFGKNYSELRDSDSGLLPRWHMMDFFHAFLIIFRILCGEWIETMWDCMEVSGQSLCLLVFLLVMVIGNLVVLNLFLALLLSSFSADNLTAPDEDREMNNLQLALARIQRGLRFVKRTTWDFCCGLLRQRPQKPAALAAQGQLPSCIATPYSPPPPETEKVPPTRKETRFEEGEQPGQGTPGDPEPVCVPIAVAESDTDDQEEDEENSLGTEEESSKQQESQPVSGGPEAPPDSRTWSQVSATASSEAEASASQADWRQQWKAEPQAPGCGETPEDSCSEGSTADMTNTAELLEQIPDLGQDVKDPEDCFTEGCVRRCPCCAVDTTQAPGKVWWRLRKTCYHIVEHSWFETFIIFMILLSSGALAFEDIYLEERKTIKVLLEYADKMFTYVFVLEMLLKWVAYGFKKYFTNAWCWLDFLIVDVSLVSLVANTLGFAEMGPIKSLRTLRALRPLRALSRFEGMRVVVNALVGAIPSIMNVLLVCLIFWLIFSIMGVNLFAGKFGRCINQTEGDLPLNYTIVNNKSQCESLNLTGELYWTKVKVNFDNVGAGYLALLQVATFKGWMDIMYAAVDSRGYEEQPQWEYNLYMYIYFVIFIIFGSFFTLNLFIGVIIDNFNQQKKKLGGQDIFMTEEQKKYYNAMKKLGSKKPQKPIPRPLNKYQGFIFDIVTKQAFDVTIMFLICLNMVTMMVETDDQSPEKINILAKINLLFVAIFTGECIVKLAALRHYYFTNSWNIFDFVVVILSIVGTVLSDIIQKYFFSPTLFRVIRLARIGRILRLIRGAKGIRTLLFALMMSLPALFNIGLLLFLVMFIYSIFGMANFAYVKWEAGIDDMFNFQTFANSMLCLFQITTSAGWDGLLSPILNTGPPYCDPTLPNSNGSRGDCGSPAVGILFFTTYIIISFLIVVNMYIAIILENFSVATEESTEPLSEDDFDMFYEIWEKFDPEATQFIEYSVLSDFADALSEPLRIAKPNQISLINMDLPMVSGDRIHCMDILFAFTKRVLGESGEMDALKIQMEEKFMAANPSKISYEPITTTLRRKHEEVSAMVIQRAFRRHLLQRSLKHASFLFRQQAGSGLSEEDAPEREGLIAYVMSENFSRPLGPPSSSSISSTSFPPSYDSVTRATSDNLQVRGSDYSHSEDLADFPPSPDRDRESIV
Description: as §1

[6] = in vivo pharmacokinetics, IV; set-up: species or system male CD-1 mice
Description: The in vivo pharmacokinetic studies of 7a were performed by Selvita d.o.o. (Zagreb, Croatia) in male CD-1 mice (Charles River). The test compound was administered via intravenous (iv) bolus at a dose of 1 mg/kg (dose volume 5 mL/kg). Blood samples were collected from the tail vein 0.05, 0.25, 0.5, 1.0, 2.0, 4.0, 8.0, and 24 h after administration from three animals per time point. Each animal was sampled 2–4 times throughout the time course of collection (six animals were used totally per each route). Blood samples were centrifuged at 1560g for 10 min at 4 °C. The samples were analyzed by LC–MS/MS. Prior to analysis, the samples were prepared by protein precipitation {20 μL of plasma + 20 μL of water + 240 μL of extraction solvent [acetonitrile/methanol (2:1 v/v) with 100 ng/mL diclofenac (IS)]}, and the extracts were diluted with water (1:3 v/v).
For LC–MS/MS analysis, a Shimadzu prominence HPLC system was used (HPLC pump: LC30AD, autosampler: SIL30ACMP, column oven: CTO30A) connected to an Applied Biosystems mass spectrometer (QTRAP 5500) operating in the positive TurboIonSpray mode. For separation, a Waters Acquity UPLC BEH C18 1.7 μm, 2.1 × 50 mm (Waters, Milford, MA) column was used, with an injection volume of 1 or 2 μL and a flow rate of 0.5 mL/min. The mobile phase consisted of 0.1% formic acid in water (solvent A) and 0.1% formic acid in acetonitrile (solvent B). Gradient: 0–0.05 min, 5% B; 0.05–0.80 min, 5–85% B; 0.80–1.00, 85% B; 1.00–1.01, 85–95% B; 1.01–1.50, 95% B; 1.50–1.51, 95–5% B, 1.51–2.00, 5% B.
Pharmacokinetic analysis was performed using WinNonlin Phoenix software (Certara, version 8.3) from the mean animal plasma concentration per group, per time point, non-compartmental analysis, and the target dose.

[7] = tested on: S. aureus ATCC 700699 (VISA); type: in vivo, female CD-1 mice; conditions: for Change in log10CFU/gr of thigh from 2 hour control / Change in log10CFU/gr of thigh from 26 hours control / Average log10CFU/gr of thigh: IV; for Average log10CFU/gr of thigh: 26 h
Description: The neutropenic mouse thigh infection model study was performed by NeoSome Life Sciences, LLC (Lexington, MA, USA) according to NeoSome Institutional Animal Care and Use Committee (IACUC) policies and guidelines as well as NIH’s Office of Laboratory Animal Welfare (OLAW) standards.
Neutropenic mouse thigh infection experiments were performed on female CD-1 mice (Charles River Laboratories, USA). To induce neutropenia, mice received two doses of cyclophosphamide on days −4 and −1 with 150 and 100 mg/kg delivered intraperitoneally (IP), respectively. The inoculum of the testing strain, S. aureus ATCC 700699-P1 (VISA), was prepared from overnight agar plate cultures. To prepare bacterial inoculums, a portion of the plate was resuspended in sterile saline and adjusted to an OD of 0.12 at 625 nm. Next, the resulted bacterial suspension was further diluted to reach an infecting inoculum of 6.0 × 10^5 cfu per each mouse. Plate counts of the inoculum were also performed in each case to confirm the inoculum concentration, and the actual inoculum size was 7.25 × 10^5 cfu/mouse. Mice were inoculated with 100 μL of the prepared bacterial suspension via an intramuscular injection into the right rear thigh. […] The test agent was then dosed via IV administration, to ensure optimal distribution, at 2, 10, and 18 h post-infection. Beginning at 2 h, post-infection mice were dosed with either test article or positive control antibiotic. Mice receiving test agents were dosed intravenously at 10 mL/kg. Linezolid was delivered as a SC dose to ensure optimized exposure, distribution, and efficacy. Four animals were dosed per group. One group of four mice was euthanized at the initiation of therapy (t = 2 h) and cfus determined. All remaining mice were euthanized at 26 h post-infection. At termination, thighs were aseptically excised, weighed, and homogenized to a uniform consistency in 2 mL of sterile saline. The homogenate was serially diluted and plated on bacterial growth media. The cfus were enumerated after overnight incubation.

[8] = target: S. aureus topo IV (Staphylococcus aureus, UniProt P0C1S7)
Description: In all experiments, the activity of the
as §2, §3, §4, §5, §6, §7
− S. aureus gyrase supercoiling assay
as §8, §9
− S. aureus topo IV decatenation assay
as §10, §11, §12, §13, §14, §15, §16, §17
software. […]

[9] = target: S. aureus DNA gyrase (Staphylococcus aureus, UniProt P0A0K8); experiment: gel-based supercoiling assay
Description: In all experiments, the activity of the
as §2, §3, §4, §5, §6, §7
− S. aureus gyrase supercoiling assay
as §8, §9
− S. aureus topo IV decatenation assay
as §10, §11, §12, §13, §14, §15, §16, §17
software. […]

[10] = target: A. baumannii topo IV (Acinetobacter baumannii, UniProt A0ABX6CMT0); experiment: gel-based decatenation assay
Description: In all experiments, the activity of the
as §2, §3, §4, §5, §6, §7
− S. aureus gyrase supercoiling assay
as §8, §9
− S. aureus topo IV decatenation assay
as §10, §11, §12, §13, §14, §15, §16, §17
software. […]

[11] = male, CD-1, mouse, plasma, IV 1 mg/kg

Structure (SMILES): Cc1[nH]c(C(=O)Nc2nc3c(N4CCOCC4)cc(C(=O)O)cc3s2)c(Cl)c1Cl [7a, 2-(3,4-Dichloro-5-methyl-1H-pyrrole-2-carboxamido)-4-morpholinobenzo[d]thiazole-6-carboxylic Acid]
- IC50 [1]: 2.42 ± 0.28 nM
- IC50 [2]: 17000 nM
- MIC ([3]; A. baumannii BM4652, efflux-defective): < 0.125 µg/mL
- MIC ([3]; A. baumannii NMI 2692/14, clinical MDR): 1 µg/mL (≈ 2.2 µM)
- MIC ([3]; A. baumannii NMI 2699/14, clinical MDR): 1 µg/mL (≈ 2.2 µM)
- MIC ([3]; A. baumannii NMI 2704/14, clinical MDR): 1 µg/mL (≈ 2.2 µM)
- inhibition of hERG ([4]; 50 µM): no significant inhibition
- hERG current fraction (normalized to neg. control) ([4]; 50 µM 7a, mean ± SEM): 1.01 ± 0.02
- inhibition of Nav1.5 ([5]; 10 µM): no significant inhibition
- Nav1.5 current fraction (normalized to neg. control) ([5]; 10 µM 7a, mean ± SEM): 0.97 ± 0.03
- plasma clearance as % of liver blood flow ([6]; assuming 90 mL/min/kg): 61%
- AUC(0-inf) at 24 h [6, 11]: 304 ng·h/mL
- C0 at 24 h [6, 11]: 913 ng/mL
- clearance at 24 h [6, 11]: 54.8 mL/min/kg
- half-life at 24 h [6, 11]: 1 h
- AUC(0-t) at 24 h ([6]; male, CD-1, mouse, plasma, IV 1 mg/kg, read-out: AUC0–24h): 303 ng·h/mL
- Vd at 24 h ([6]; male, CD-1, mouse, plasma, IV 1 mg/kg, read-out: Vss): 2.3 L/kg
- CFU/ g of thigh, single animals ([7]; 10 mg/kg): 1.82E+08 and 2.23E+08 and 2.51E+08 and 1.42E+08
- log CFU, single animals ([7]; 10 mg/kg): 8.26 and 8.35 and 8.40 and 8.15
- Change in log10CFU/gr of thigh from 2 hour control ([7]; 10 mg/kg TID): 2.00
- Change in log10CFU/gr of thigh from 26 hours control ([7]; 10 mg/kg TID): 0.19
- Average log10CFU/gr of thigh ([7]; 10 mg/kg TID): 8.29
- CFU/ g of thigh, single animals ([7]; 25 mg/kg): 4.64E+05 and 4.16E+06 and 1.83E+07 and 9.23E+06
- log CFU, single animals ([7]; 25 mg/kg): 5.67 and 6.62 and 7.26 and 6.97
- reduction compared to 26 h controls ([7]; 25 mg/kg IV): 1.47 log10 cfu
- Change in log10CFU/gr of thigh from 2 hour control ([7]; 25 mg/kg TID): 0.33
- Change in log10CFU/gr of thigh from 26 hours control ([7]; 25 mg/kg TID): -1.47
- Average log10CFU/gr of thigh ([7]; 25 mg/kg TID): 6.63
- CFU/ g of thigh, single animals ([7]; 50 mg/kg): 1.72E+05 and 1.68E+05 and 8.81E+05 and 8.82E+04
- log CFU, single animals ([7]; 50 mg/kg): 5.24 and 5.23 and 5.95 and 4.95
- reduction compared to 26 h controls ([7]; 50 mg/kg IV): 2.76 log10 cfu
- reduction compared to 2 hour infection controls ([7]; 50 mg/kg IV (TID)): 0.96 log10 cfu
- Change in log10CFU/gr of thigh from 2 hour control ([7]; 50 mg/kg TID): -0.96
- Change in log10CFU/gr of thigh from 26 hours control ([7]; 50 mg/kg TID): -2.76
- Average log10CFU/gr of thigh ([7]; 50 mg/kg TID): 5.34
- IC50 [8]: 8 ± 1.2 nM
- IC50 [9]: 1.22 ± 0.04 nM
- IC50 [10]: 120 ± 8.34 nM
